In one series the target is T1, KV7.4 (Homo sapiens, UniProt P56696).
T1 construct: expressed in transfected cells; host or cells: Xenopus laevis oocytes injected with cRNA (pGEM-HE vector)
T1 sequence (P56696 1-695): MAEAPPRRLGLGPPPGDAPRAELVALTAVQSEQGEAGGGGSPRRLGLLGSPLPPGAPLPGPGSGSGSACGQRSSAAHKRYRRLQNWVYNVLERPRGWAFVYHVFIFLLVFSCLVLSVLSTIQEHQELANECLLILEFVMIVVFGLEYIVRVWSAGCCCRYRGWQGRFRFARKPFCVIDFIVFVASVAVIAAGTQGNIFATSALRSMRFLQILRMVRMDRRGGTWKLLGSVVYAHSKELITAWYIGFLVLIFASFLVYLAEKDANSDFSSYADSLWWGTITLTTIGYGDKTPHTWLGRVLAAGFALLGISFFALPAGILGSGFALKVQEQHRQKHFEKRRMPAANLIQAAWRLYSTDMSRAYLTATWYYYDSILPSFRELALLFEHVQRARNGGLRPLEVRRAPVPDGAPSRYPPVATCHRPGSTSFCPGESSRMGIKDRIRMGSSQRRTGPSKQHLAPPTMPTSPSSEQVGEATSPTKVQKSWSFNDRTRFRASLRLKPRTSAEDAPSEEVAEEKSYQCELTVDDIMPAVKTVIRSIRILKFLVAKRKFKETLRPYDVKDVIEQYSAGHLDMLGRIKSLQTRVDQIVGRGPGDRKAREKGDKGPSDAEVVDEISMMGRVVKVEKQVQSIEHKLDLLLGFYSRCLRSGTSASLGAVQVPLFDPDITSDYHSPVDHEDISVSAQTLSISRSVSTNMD
As to the kind of experiment: Two-electrode voltage-clamp of KV7.4 expressed in Xenopus laevis oocytes. Type of series: cell-based. As for the experimental part:
(§1) Point mutations were introduced using mutated oligonucleotide extension (PfuTurbo Polymerase, Stratagene, La Jolla, CA, USA) from a plasmid template harboring the cDNA of interest, digested with DpnI (Fermentas, St. Leon-Roth, Germany) and transformed into E.coli XL1 Blue cells. The construct was verified by complete DNA sequencing of the cDNA insert. cRNA was prepared from linearized human wild-type (WT) and mutant KV7 channels in the pGEM-HE vector using the T7 m-Message Machine kit (Ambion, Austin, TX, USA) according to the manufacturer's instructions.
(§2) Extraction of Xenopus laevis oocytes and injection of cRNA was performed as described previously. Oocytes were kept in Modified Barth's Saline (in mM: 88 NaCl, 1 KCl, 2.4 NaHCO3, 0.41 CaCl2, 0.82 MgSO4, 0.3 Ca(NO3)2, 15 HEPES, pH 7.4 supplemented with 100 U/mL penicillin and 100 µg/mL streptomycin) at 18°C, and currents were recorded after 2-7 days. The care of Xenopus laevis and the oocyte extraction procedure were performed according to national guidelines and approved by the Danish Animal Experiments Inspectorate.
(§3) KV7 currents in Xenopus laevis oocytes were recorded using two-electrode voltage-clamp at room temperature in Ringer buffer (in mM: 115 NaCl, 2.5 KCl, 1.8 CaCl2, 0.1 MgCl2, 10 HEPES, pH 7.4) as described previously. Data was acquired using pCLAMP 10.2 software (Molecular Devices, CA, USA) and analyzed using pCLAMP 10.2 and GraphPad Prism 4.0 (GraphPad Software Inc., CA, USA). Currents were elicited from a holding potential of −80 mV by 5 s steps to potentials between −100 and +50 mV in 10 mV increments, followed by a 2 s step to −120 mV.
(§4) SMB-1 was dissolved in dimethyl sulfoxide (DMSO) to obtain a concentrated stock solution. On the day of experiments the stock solution was thawed and diluted in Ringer buffer to the final concentrations. A concentration of 10 µM SMB-1 was used unless indicated otherwise. The final DMSO concentration never exceeded 0.1%.
(§5) Current – voltage (I–V) relationship curves were generated by normalizing the steady-state peak current measured at potentials between −100 and +50 mV to the current measured at +50 mV in control recordings and plotting the values against the test potential.
(§6) The voltage-dependence of activation was determined from tail current analysis using the current measured immediately after the transient capacitive current after stepping to −120 mV from potentials between −100 mV and +50 mV. Data was normalized to extend from 0–1 and the tail current-voltage relationship was fitted to the Boltzmann equation: [drawing 1] (Equation\;1) where I max is the maximum tail current, I min is the minimum tail current, V0.5 is the potential for half maximal activation and k is the slope factor. A V0.5 was calculated for each individual experiment and statistical significance was estimated by paired two-tailed Student's t-test.
Activation kinetics for KV7.4 and KV7.4-W242L was determined by fitting the traces recorded at potentials between −30 and +50 mV to a single exponential function: [drawing 3] (Equation\;3) where I(t) is the current at time t, I 0 is the peak current and τ is the activation time constant.
(§7) For investigation of deactivation kinetics the tail current traces recorded at −120 mV when stepping from the channels' respective ∼V0.5 were fitted to a single exponential function (Eq. 3).
Dose-response curves from electrophysiological experiments were made by plotting the increase in steady state current at +50 mV expressed in percentages as a function of drug concentration. The data were then analyzed by non-linear regression and fitted to the equation for sigmoidal dose-response with variable slope: [drawing 4] (Equation\;4) where R1 is the initial response, R2 is the maximum response, X is the logarithm of the drug concentration and nH is the slope (Hill coefficient) of the curve.
(In general: In two-electrode clamp one electrode senses voltage and the other passes current.)

The target of a further series is T2, KV7.2-W236L (Homo sapiens, UniProt O43526, W236L).
T2 construct: expressed in transfected cells; host or cells: Xenopus laevis oocytes injected with cRNA (pGEM-HE vector)
T2 sequence (O43526 whole entry W236L): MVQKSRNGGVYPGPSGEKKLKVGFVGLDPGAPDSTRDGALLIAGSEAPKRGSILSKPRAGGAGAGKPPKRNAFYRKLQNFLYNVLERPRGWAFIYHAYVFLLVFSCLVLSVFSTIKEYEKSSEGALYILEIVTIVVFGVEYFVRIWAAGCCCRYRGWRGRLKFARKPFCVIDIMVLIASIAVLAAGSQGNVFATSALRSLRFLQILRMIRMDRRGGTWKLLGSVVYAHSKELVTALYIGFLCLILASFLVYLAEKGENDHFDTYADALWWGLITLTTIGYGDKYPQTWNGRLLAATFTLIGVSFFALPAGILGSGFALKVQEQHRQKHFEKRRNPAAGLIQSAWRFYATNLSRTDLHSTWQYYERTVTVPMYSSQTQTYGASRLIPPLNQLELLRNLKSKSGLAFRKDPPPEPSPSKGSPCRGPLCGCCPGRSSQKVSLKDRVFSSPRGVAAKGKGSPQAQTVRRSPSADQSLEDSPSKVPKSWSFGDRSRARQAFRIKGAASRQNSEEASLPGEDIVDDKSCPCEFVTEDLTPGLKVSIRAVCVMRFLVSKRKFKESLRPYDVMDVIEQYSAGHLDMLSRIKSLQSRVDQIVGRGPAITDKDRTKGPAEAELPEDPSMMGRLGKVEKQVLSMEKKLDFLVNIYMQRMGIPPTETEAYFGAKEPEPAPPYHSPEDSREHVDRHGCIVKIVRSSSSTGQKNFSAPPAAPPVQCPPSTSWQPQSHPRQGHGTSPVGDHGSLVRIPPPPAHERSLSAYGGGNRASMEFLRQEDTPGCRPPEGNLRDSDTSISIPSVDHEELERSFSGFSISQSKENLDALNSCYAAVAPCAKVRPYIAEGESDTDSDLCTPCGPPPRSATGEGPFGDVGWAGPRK
As to the kind of experiment: Two-electrode voltage-clamp of mutant KV7.2-W236L in Xenopus laevis oocytes. Format: cell-based. How it is done: as §1, §2, §3, §4, §5, §6
Activation kinetics for KV7.2 and KV7.2-W236L was determined by fitting the traces recorded at potentials between −40 and +40 mV to a double exponential function: [drawing 2] (Equation\;2) where I(t) is the current at time t, Ifast and Islow are the current amplitudes at infinite times, and τfast and τslow are the time constants of the fast and slow components, respectively.
as §7

Series [1] is described as follows: Free fraction by equilibrium dialysis, rat brain homogenate. Format: in vitro ADME. The note with it: equilibrium dialysis 37°C 5 h, mean ± S.E.M., n = 3. As for the experimental part:
The bidirectional permeability (Papp) of SMB-1 was examined in an MDCK cell system expressing human MDR1 [ABCB1, P-glycoprotein (P-gp)] as described previously. Permeation of the test compound from apical (A) to basal (B) direction or B to A direction was determined in triplicate over a 150-min incubation at 37°C. The efflux ratio was calculated as the ratio between Papp (B to A) and Papp (A to B). Free fraction of SMB-1 was determined using a standard equilibrium dialysis methodology with freshly isolated rat brain homogenate or plasma. Equilibrium dialysis was performed by incubating at 37°C for 5 h in triplicates.
(Equilibrium dialysis compares concentrations on both sides of a semipermeable membrane.)

The results in this text go back to paper PMC4067310, “From Pan-Reactive KV7 Channel Opener to Subtype Selective Opener/Inhibitor by Addition of a Methyl Group” (PLoS ONE, 2014).

As usually defined, the EC50 is the concentration needed to bring the measured effect to its halfway point. Broadly, the fraction unbound is the share of the substance not bound to proteins or other matrix. Lower therefore signals little free substance. As for `C[C@@H](c1ccc2c(c1)N(CC1CC1)CCO2)N(C)C(=O)/C=C/c1ccccc1F` [SMB-1, (E)-N-[(S)-1-(4-Cyclopropylmethyl-3,4-dihydro-2H-1,4-benzoxazin-6-yl)-ethyl]-3-(2-fluoro-phenyl)-N-methyl-acrylamide], the current amplitude, % of control at 10 µM on KV7.4 (10 µM SMB-1, +50 mV, n = 8) amounted to 184 ± 12.4%. The “effect on τact” value at KV7.4 (10 µM, at all potentials tested) is reported as “significantly increased”. The “τdeact, deactivation time constant in presence of compound” value came out at 16.4 ± 1.2 ms on KV7.4 (10 µM, control 10.3±0.6 ms, n = 8, p<0.001) and 27.0 ± 3.0 ms on KV7.2-W236L (10 µM, control 23.3±2.9 ms, n = 6, p<0.05). The “V0.5, voltage-dependence of activation in presence of compound” value at KV7.4 (10 µM, control −0.2±3.6 mV, n = 8, p = 0.59) is −1.4±3.4 mV; at KV7.2-W236L (10 µM, control −27.1±2.4 mV, n = 4, p = 0.2), −15.0±10.1 mV. For the same compound, the Emax at KV7.4 (+50 mV, n = 5, read-out: maximal efficacy) worked out at 213 ± 33.1%. At KV7.4 (increase in steady state current at +50 mV, n = 5), this compound displayed an EC50 of 5.7 µM. For the same compound, the “effect on τact_fast” value on KV7.2-W236L (10 µM) is “no significant effect”. The remaining activity at 10 µM at KV7.2-W236L (10 µM SMB-1, +50 mV, n = 6, read-out: current amplitude, % of control) is 68.8 ± 3.9%. Besides, the “effect on τact_slow” value on KV7.2-W236L (10 µM, at potentials above −20 mV) is reported as “significantly increased”. This compound gave a free fraction (fraction unbound) at 5 h in series [1] of 0.001 ± 0.001.
